Molecular target: human P2X3 receptor (Homo sapiens (Human), UniProt P56373)
Test: Evaluation of human P2X3 receptor inhibitory activity (Fluo-3 calcium fluorescence, FDSS 3000, ATP stimulation);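 also: stimulus was 50 nM ATP with fluorescence followed for 3 min, and the response per well was peak post-ATP fluorescence divided by the reading at measurement start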
Type: cell-based
[1] = human P2X3 receptor, Test Example 1
[2] = C6BU-1 cells stably expressing human P2X3 receptor, Fluo-3 fluorescence, FDSS 3000
[3] = C6BU-1 cells stably expressing human P2X3 receptor

Sequence of human P2X3 receptor (P56373 whole entry): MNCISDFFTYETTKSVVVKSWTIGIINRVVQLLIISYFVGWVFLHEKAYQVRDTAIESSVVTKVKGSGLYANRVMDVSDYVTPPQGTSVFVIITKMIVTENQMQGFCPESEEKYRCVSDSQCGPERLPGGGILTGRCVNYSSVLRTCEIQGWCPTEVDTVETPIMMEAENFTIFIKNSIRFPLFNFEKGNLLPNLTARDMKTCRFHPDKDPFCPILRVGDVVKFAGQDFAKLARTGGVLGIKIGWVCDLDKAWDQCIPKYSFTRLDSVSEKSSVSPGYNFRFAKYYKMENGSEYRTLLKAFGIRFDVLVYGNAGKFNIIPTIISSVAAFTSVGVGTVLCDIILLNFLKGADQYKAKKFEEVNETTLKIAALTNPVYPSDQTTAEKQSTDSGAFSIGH

Structure (SMILES)	IC50 [1]	IC50 [2]	IC50 [3]
CCn1c(=O)[nH]/c(=N\c2ccc(Oc3ccnc(C(N)=O)n3)cc2)n(Cc2ccc(Cl)cc2)c1=O [Compound I-2532]	5 nM	–	–
C[C@@H](C(=O)O)[C@H](C)n1c(=O)[nH]/c(=N\c2ccc3nc(-c4ccccc4)sc3c2)n(Cc2ccc(Cl)cc2)c1=O [Compound I-1829]	–	92 nM	–
C[C@@H](C(=O)O)[C@H](C)n1c(=O)[nH]/c(=N\c2ccc3nc(C(F)(F)F)[nH]c3c2)n(Cc2ccc(Cl)cc2)c1=O [Compound I-1794]	–	380 nM	–
Cn1c(=O)[nH]/c(=N\c2ccc(Oc3cccc(C(=O)O)c3)cc2)n(Cc2ccc(Cl)cc2)c1=O [Compound I-2064]	–	–	40 nM
CCOc1ccc(/N=c2\[nH]c(=O)n(C[C@H](C)C(=O)OC)c(=O)n2Cc2ccc(C)cc2)cc1Cl [Compound I-0678]	–	–	8 nM
CCn1c(=O)[nH]/c(=N\c2ccc(Oc3ncccc3C(=O)O)cc2)n(Cc2ccc(Cl)cc2)c1=O [Compound I-2366]	90 nM	–	–
COC(=O)[C@@H](C)Cn1c(=O)[nH]/c(=N\c2ccc(N3CCCCC3)cc2)n(Cc2ccc(C)cc2)c1=O [Compound I-1085]	–	34 nM	–
COC(=O)[C@@H](C)Cn1c(=O)[nH]/c(=N\c2ccc(C(C)C)c(Cl)c2)n(Cc2ccc(C)cc2)c1=O [Compound I-1493]	444 nM	–	–
Cc1ccc(Cn2c(=O)n(C[C@H](C)C(=O)O)c(=O)[nH]/c2=N\c2ccc(OC3CCOCC3)nc2)cc1 [Compound I-1120]	–	534 nM	–
COCc1cc(/N=c2\[nH]c(=O)n(CCC(=O)O)c(=O)n2Cc2ccc(C)cc2)ccc1OC(C)C [Compound I-1428]	–	–	926 nM
CCOc1ccc(/N=c2\[nH]c(=O)n(C[C@H](C)C(=O)OC)c(=O)n2Cc2ccc(C)cc2)cc1Br [Compound I-1173]	–	9 nM	–
CCc1nc2ccc(/N=c3\[nH]c(=O)n(CCC(=O)O)c(=O)n3Cc3ccc(Cl)cc3)cc2s1 [Compound I-1509]	14 nM	–	–
CNC(=NC#N)NCCn1c(=O)[nH]/c(=N\c2ccc(OC(C)C)c(F)c2)n(Cc2ccc(Cl)cc2)c1=O [Compound I-0653, 1-(4-chlorobenzyl)-6-(3-fluoro-4-isopropoxyphenylimino)-3-(4-cyanoimino-4-methylamino-3-azabutyl)-1,3,5-triazinane-2,4-dion]	–	–	37 nM
COC(=O)[C@@H](C)Cn1c(=O)[nH]/c(=N\c2ccc(C)c(C(F)(F)F)c2)n(Cc2ccc(Cl)cc2)c1=O [Compound I-0841]	150 nM	–	–
Cn1c(=O)[nH]/c(=N\c2ccc(Oc3cnc(C(N)=O)cn3)cc2)n(Cc2ccc(Cl)cc2)c1=O [Compound I-2389]	10 nM	–	–
COC(=O)[C@@H](C)Cn1c(=O)[nH]/c(=N\c2ccc3nc(C)sc3c2)n(Cc2ccc(Cl)cc2)c1=O [Compound I-1321]	–	–	7 nM
O=C(Cn1c(=O)[nH]/c(=N\c2ccc(Oc3cnsn3)cc2)n(Cc2ccc(Cl)cc2)c1=O)NCCO [Compound I-2677]	7 nM	–	–
CC(C)Oc1ccc(/N=c2\[nH]c(=O)n(CCS(=O)(=O)O)c(=O)n2Cc2ccc(Cl)cc2)cc1F [Compound I-0654]	–	–	26 nM
CCn1c(=O)[nH]/c(=N\c2ccc(Oc3cccc(C(=O)O)n3)c(OC)c2)n(Cc2ccc(Cl)cc2)c1=O [Compound I-2423]	7 nM	–	–
COC(=O)[C@@H](C)Cn1c(=O)[nH]/c(=N\c2ccc3nc(C)oc3c2)n(Cc2ccc(C)cc2)c1=O [Compound I-1276]	–	–	78 nM
CCn1c(=O)[nH]/c(=N\c2ccc(Oc3cccc(C#N)n3)cc2)n(Cc2ccc(Cl)cc2)c1=O [Compound I-2302]	2 nM	–	–

Structure (SMILES)	IC50 [1]	IC50 [2]	IC50 [3]
COc1cc(/N=c2\[nH]c(=O)n(C[C@H](C)C(=O)O)c(=O)n2Cc2ccc(C)cc2)ccc1Br [Compound I-1244]	–	–	473 nM
O=c1[nH]/c(=N\c2ccc(Oc3ccon3)c(F)c2)n(Cc2ccc(Cl)cc2)c(=O)n1C[C@H](O)CO [Compound I-2440]	5 nM	–	–
CCn1c(=O)[nH]/c(=N\c2ccc(Oc3nc(C(=O)O)cs3)cc2)n(C[C@H]2CC[C@H](C)CC2)c1=O [Compound I-2348]	4 nM	–	–
Cc1cnc(Oc2ccc(/N=c3\[nH]c(=O)n(CCO)c(=O)n3Cc3ccc(Cl)cc3)cc2)s1 [Compound I-2457]	13 nM	–	–
Cc1cc(/N=c2\[nH]c(=O)n(Cc3cccnc3OCCOC3CCCCO3)c(=O)n2Cc2ccc(Cl)cc2)ccc1OC(C)C (stereo not drawn) [Compound I-0714]	–	–	30 nM
Cn1c(=O)[nH]/c(=N\c2ccc(Oc3ccc(C(N)=O)nn3)cc2)n(Cc2ccc(Cl)cc2)c1=O [Compound I-2379]	9 nM	–	–
C[C@@H](Cn1c(=O)[nH]/c(=N\c2ccc3c(c2)CCCO3)n(Cc2ccc(Cl)cc2)c1=O)C(=O)O [Compound I-1103]	–	423 nM	–
COC(=O)CCn1c(=O)[nH]/c(=N\c2ccc(Oc3cccc(C#N)n3)cc2)n(Cc2ccc(Cl)cc2)c1=O [Compound I-2666]	2 nM	–	–
CCOC(=O)Cn1c(=O)[nH]/c(=N\c2ccc(Oc3ccon3)c(F)c2)n(Cc2ccc(Cl)cc2)c1=O [Compound I-2578]	6 nM	–	–
COCCn1c(=O)[nH]/c(=N\c2ccc(Oc3ccnc(C(=O)OC)c3)cc2)n(Cc2ccc(Cl)cc2)c1=O [Compound I-2536]	5 nM	–	–
CCOC(=O)CCn1c(=O)[nH]/c(=N\c2ccc(Oc3ccncc3)cc2)n(Cc2ccc(Cl)cc2)c1=O [Compound I-1205]	–	–	2 nM
CNC(=O)[C@@H](C)Cn1c(=O)[nH]/c(=N\c2ccc(Oc3ccc(O)nc3)cc2)n(Cc2ccc(C)cc2)c1=O [Compound I-1601]	–	24 nM	–
CCn1c(=O)[nH]/c(=N\c2ccc(Oc3ccnc(C(=O)OC)c3)cc2)n(CC2CCC3(CC2)CC3)c1=O [Compound I-2174]	–	–	6 nM
CCCOc1ccc(/N=c2\[nH]c(=O)n([C@H](C)[C@H](C)C(=O)O)c(=O)n2Cc2ccc(C)cc2)cc1 [Compound I-1340]	–	–	57 nM
Cc1ccc(Cn2c(=O)n(C[C@H](C)C(=O)O)c(=O)[nH]/c2=N\c2ccc(Oc3ccc(O)nc3)cc2)cc1 [Compound I-1536]	24 nM	–	–
CCn1c(=O)[nH]/c(=N\c2ccc(Oc3nc(C(=O)O)c(C)s3)cc2)n(Cc2ccc(Cl)cc2)c1=O [Compound I-2450]	8 nM	–	–
CCOC(=O)CCn1c(=O)[nH]/c(=N\c2ccc(OCC3CC3)cc2)n(Cc2ccc(Cl)cc2)c1=O [Compound I-1147]	–	10 nM	–
CCn1c(=O)[nH]/c(=N\c2ccc(Oc3ccnnc3)cc2)n(Cc2ccc(Cl)cc2)c1=O [Compound I-2600]	4 nM	–	–
COC(=O)[C@@H](C)Cn1c(=O)[nH]/c(=N\c2ccc(C3CC3)c(Cl)c2)n(Cc2ccc(C)cc2)c1=O [Compound I-1487]	106 nM	–	–
COC(=O)c1cc(/N=c2\[nH]c(=O)n(CCC(=O)O)c(=O)n2Cc2ccc(C)cc2)cn1C [Compound I-1879]	–	128 nM	–
CCCn1c(=O)[nH]/c(=N\c2ccc(Oc3ccnc(C(=O)OC)c3)cc2)n(Cc2ccc(Cl)cc2)c1=O [Compound I-2160]	–	–	3 nM

Structure (SMILES)	IC50 [1]	IC50 [2]	IC50 [3]
CCOC(=O)CCn1c(=O)[nH]/c(=N\c2ccc(Oc3ccc(F)cc3)cc2)n(Cc2ccc(Cl)cc2)c1=O [Compound I-1872]	–	15 nM	–
COC(=O)[C@@H](C)Cn1c(=O)[nH]/c(=N\c2ccc(CC(C)C)c(F)c2)n(Cc2ccc(C)cc2)c1=O [Compound I-1252]	–	–	23 nM
CCn1c(=O)[nH]/c(=N\c2ccc(Oc3ccc([N+](=O)[O-])nc3)cc2)n(Cc2ccc(Cl)cc2)c1=O [Compound I-2172]	–	–	1 nM
CCc1ccc(Cn2c(=O)n(C[C@H](C)C(=O)OC)c(=O)[nH]/c2=N\c2ccc(OC(C)C)c(C)c2)cc1 [Compound I-0894, (S)-1-(4-ethylbenzyl)-6-(3-mehyl-4-isopropoxyphenylimino)-3-(2-methoxycarbonylpropyl)-1,3,5-triazinane-2,4-dion]	28 nM	–	–
CCOC(=O)CCn1c(=O)[nH]/c(=N\c2ccc3nc(CC)sc3c2)n(Cc2ccc(C)cc2)c1=O [Compound I-1506]	2 nM	–	–
CCC[C@@H](C)Oc1ccc(/N=c2\[nH]c(=O)n(CCC(=O)OCC)c(=O)n2Cc2ccc(C)cc2)cc1 [Compound I-1053]	–	79 nM	–
COC(=O)[C@@H](C)Cn1c(=O)[nH]/c(=N\c2ccc3c(c2)CCCO3)n(Cc2ccc(Cl)cc2)c1=O [Compound I-1102]	–	148 nM	–
CCc1nc2ccc(/N=c3\[nH]c(=O)n(CC(=O)O)c(=O)n3Cc3ccc(Cl)cc3)cc2s1 [Compound I-1798]	–	150 nM	–
COC(=O)CC1(Cn2c(=O)[nH]/c(=N\c3ccc(OC(C)C)c(Cl)c3)n(Cc3ccc(Cl)cc3)c2=O)CC1 [Compound I-0977]	–	15 nM	–
Cc1ccc(Cn2c(=O)n(C[C@H](C)C(=O)O)c(=O)[nH]/c2=N\c2ccc(CC(C)C)c(Cl)c2)cn1 [Compound I-1485]	235 nM	–	–
CCCc1ccc(/N=c2\[nH]c(=O)n(C[C@H](C)C(=O)O)c(=O)n2Cc2ccc(C)cc2)cc1C [Compound I-1212]	–	–	90 nM
COCc1ccc(/N=c2\[nH]c(=O)n(C[C@H](C)C(=O)O)c(=O)n2Cc2ccc(Cl)cc2)cc1 [Compound I-0686]	–	–	605 nM
Cc1ccc(Oc2ccc(/N=c3\[nH]c(=O)n(CCCO)c(=O)n3Cc3ccc(Cl)cc3)cc2)cn1 [Compound I-1597]	–	4 nM	–
COC(=O)[C@@H](C)Cn1c(=O)[nH]/c(=N\c2ccc(OC3CCOCC3)nc2)n(Cc2ccc(C)cc2)c1=O [Compound I-1118]	–	387 nM	–
Cc1cc(Oc2ccc(/N=c3\[nH]c(=O)n(CC(CO)CO)c(=O)n3Cc3ccc(Cl)cc3)cc2)ccn1 [Compound I-1954]	–	–	5 nM
CC(C)Oc1ccc(/N=c2\[nH]c(=O)n(CCC(=O)O)c(=O)n2CC2(C)CCCCC2)cc1F [Compound I-1809]	–	339 nM	–
CC(C)Oc1ccc(/N=c2\[nH]c(=O)n(CCN(CCO)C(=O)OC(C)(C)C)c(=O)n2Cc2ccc(Cl)cc2)cc1F [Compound I-2109]	–	–	11 nM
COC(=O)[C@@H](C)Cn1c(=O)[nH]/c(=N\c2ccc(C3=CCCC3)cc2)n(Cc2ccc(C)cc2)c1=O [Compound I-1083]	–	125 nM	–
CCn1c(=O)[nH]/c(=N\c2ccc(Oc3cncc(C(=O)OC)c3)cc2)n(Cc2ccc(Cl)cc2)c1=O [Compound I-1863]	–	5 nM	–
CNC(=O)c1cc(Oc2ccc(/N=c3\[nH]c(=O)[nH]c(=O)n3Cc3ccc(Cl)cc3)cc2F)ccn1 [Compound I-2101]	–	–	26 nM
COC(=O)[C@@H](C)Cn1c(=O)[nH]/c(=N\c2ccc3c(c2)CCCC3)n(Cc2ccc(Cl)cc2)c1=O [Compound I-0791]	–	–	266 nM

From patent publication US9718790B2, “Triazine derivative and pharmaceutical composition having an analgesic activity comprising the same” (SHIONOGI & CO., LTD., priority 2010, dated 2017)
